# Laboratory results published in patent EP2608671B1, “COMPOUNDS FOR TREATMENT OF CANCER” (Gtx, Inc., priority 2010, dated 2012).
# Like-named read-outs stand apart in the source and are kept apart here.
# How the values were obtained:
# DU 145 = experiment: cells; settings: Homo sapiens, DU-145, 96 h
# Bovine brain tubulin = experiment: In vitro tubulin polymerization assay; assay type: biochemical; settings: 10 µM
# Source text: (§1) In Vitro Tubulin Polymerization Assay.
# as §1
# In vitro microtubule polymerization assay.
# in vivo [1] = settings: mouse, ip
# WM-164 = experiment: SRB cell growth inhibition (cytotoxicity) assay; assay type: cell-based, human; settings: Homo sapiens
# [2] = system: A375 human melanoma xenograft; experiment: In vivo antitumor efficacy, A375 melanoma xenograft; parameters: species or system mouse; settings: 2k 15 mg/kg i.p.
# Experimental: DTIC at 60 mg/kg was used as a positive control again.
# (§2) PC-3 and A375 tumor xenograft studies.
# (§3) In vivo antitumor activity [tumor growth inhibition (% T/C), tumor growth delay (T-C value), and tumor cell kill (total log cell kill)].
# [3] = system: PC-3 prostate tumor xenograft; experiment: In vivo antitumor efficacy, PC-3 xenograft; parameters: species or system mouse; settings: control 680 mm^3
# Source text: as §2, §3
# B16-F1 = experiment: SRB cell growth inhibition (cytotoxicity) assay; assay type: cell-based, mouse; settings: Mus musculus, B16-F1, SRB assay; Tables 1, 2, 3, 5B, 5C; read-out: IC50 ± SEM (nM), B16-F1
# Source text: (§4) The only compounds which belong to the invention are the ones falling under the scope of formula (XI).
# OVCAR-8 = experiment: SRB growth inhibition, MDR model parent line; assay type: cell-based, human; settings: Homo sapiens
# PC-3 cells = experiment: In vivo drug resistance study (cells dissociated from PC-3 xenografts); assay type: cell-based; settings: Homo sapiens
# [4] = system: tubulin (colchicine, vinblastine and paclitaxel binding sites); experiment: MS competitive binding assay
# Source text: MS competition binding assay. […] Each reaction was run in triplicate.
# A375 = experiment: SRB cell growth inhibition (cytotoxicity) assay; assay type: cell-based, human; settings: Homo sapiens
# PPC-1 = experiment: cells; settings: Homo sapiens, PPC-1, 96 h, read-out: IC50 ± SEM (nM), PPC-1
# [5] = for CL (mL/min/kg), systemic clearance / Vss (L/kg), volume of distribution: […] (1h, 2r), 5 mg/kg (5Ha, 5Hc)
# [6] = Rotarod test (in vivo neurotoxicity); settings: mouse
# LNCaP = experiment: cells; settings: Homo sapiens, 96 h, read-out: IC50 ± SEM (nM), LNCaP
# PC-3 = experiment: cells
# Source text: as §4
# Cells were stained with SRB solution.
# Cells. […] Cells between the third and fifth passages were used for experiments.
# Cell growth inhibition studies. […] Cells were stained with sulphorhodamine B (SRB) solution.
# [7] = system: melanoma cell lines (A375, WM-164, B16-F1) and prostate cancer cell lines (LNCaP, DU 145, PC-3, PPC-1); experiment: SRB cytotoxicity, melanoma and prostate cell panel (averages); assay type: cell-based; settings: Prostate cell, read-out: IC50 range over tested melanoma and prostate cell lines
# Source text: as §4
# in vivo [8] = settings: rat, plasma, po, 10 mg/kg
# [9] = 90 min
# NCI/ADR-RES = experiment: SRB growth inhibition, P-gp over-expressing MDR line; assay type: cell-based, human
# in vivo [10] = settings: mouse, po, 20 mg/kg
# MDA-MB-435 = experiment: SRB growth inhibition, sensitive parent melanoma line; assay type: cell-based; settings: Homo sapiens, MDA-MB-435; parental cell line, n=3; read-out: IC50 ± SEM (nmol/L) MDA-MB-435
# [11] = system: cancer and MDR cell lines with different resistance mechanisms; experiment: Growth inhibition in other cancer and MDR cell lines of Table 14B; assay type: cell-based; settings: n=3
# MDA-MB-435/LCC6MDR1 = experiment: SRB growth inhibition, multidrug-resistant melanoma line; assay type: cell-based; settings: MDA-MB-435/LCC6 MDR1; MDR1 overexpressed, n=3; read-out: IC50 ± SEM (nmol/L) MDA-MB-435/LCC6MDR1
# WM-164 melanoma cells = experiment: Microtubule imaging (immunofluorescence); assay type: cell-based, human; settings: 18 h treatment
# Source text: Primary antibody for tubulin and fluorescence-labeled secondary antibody were subsequently added to the cells. Cell nuclei were stained by DAPI. Whole Cell Stain Green was also applied to all cells. All images were acquired with an Olympus IX71 inverted fluorescence microscope (Olympus Corp., Tokyo, Japan) with overlays from separate images of tubulin (red), nuclei (blue), and whole cells (green).
# MRP = experiment: Growth inhibition in MRP-mediated resistant cells (Table 14B); assay type: cell-based; settings: n=3
# PC-3/TxR tumors = settings: PC-3/TxR xenograft, IV 20mpk, day 1 and 9
# T47D = assay type: cell-based, human
# [12] = system: HUVECs (Human Umbilical Vein Endothelial Cells); assay type: cell-based
# HUVEC monolayers = experiment: Endothelial monolayer permeability assay; assay type: cell-based, human; settings: leakage of dextran after 1, 2, 4 h
# CaCO-2 = settings: human
# [13] = Homo sapiens, PC-3, 96 h, read-out: IC50 ± SEM (nM), PC-3
smiles,measurement,setting,value
"COc1cc(C(=O)c2csc(-c3ccccc3)n2)cc(OC)c1OC [1h, (2-Phenyl-thiazol-4-yl)-(3,4,5-trimethoxy-phenyl)-methanone]",IC50,"DU 145; read-out: IC50 ± SEM (nM), DU 145",71 ± 4 nM
same,inhibited tubulin polymerization,"Bovine brain tubulin; 15 min, Figure 28B",90%
same,tubulin polymerization inhibited,"Bovine brain tubulin; 20 min incubation, compared to vehicle",47%
same,MTD at 96 h,in vivo [1],≥ 30 mg/kg
same,IC50,"WM-164; WM164, 96 h, SRB assay, 96 h, Table 2, read-out: IC50 ± SEM (nM), WM-164",64 ± 4 nM
same,% T/C,"[2]; A375, 1h 20 mg/kg",28%
same,tumor volume,"[2]; A375, nude mice, 1h 20 mg/kg, 34 days, control 2183 mm^3",775 mm^3
same,Tumor volume by day 21,"[3]; PC-3, 5 mg/kg i.p.",370 mm^3
same,Tumor volume by day 21,"[3]; PC-3, 15 mg/kg i.p.",176 mm^3
same,IC50,B16-F1,55 ± 5 nM
same,IC50,"OVCAR-8; OVCAR-8, Table 5A, read-out: IC50 (nM), OVCAR-8",35 ± 2 nM
same,IC50,"PC-3 cells; PC-3, PC-3 cells from ATCC",29.1 ± 1.1 nM
same,IC50,"PC-3 cells; PC-3, dissociated cells from 1h treated tumors (15 mg/kg, 21 days)",30.4 ± 0.5 nM
same,IC50,"PC-3 cells; PC-3, dissociated cells from vehicle treated tumors",29.1 ± 0.8 nM
same,competition for tubulin binding sites,[4],specifically competed with colchicine binding to tubulin
same,IC50,"A375; A-375, 96 h, SRB assay, 96 h, Tables 1, 2, 3, 5B, 5C, read-out: IC50 ± SEM (nM), A375",28 ± 5 nM
same,IC50,PPC-1,43 ± 5 nM
same,RatPK_IV5mgk_Cl,"[5]; rat, IV, 2.5mpk",7.7 (2.5mpk) mL/min/kg
same,"CL (mL/min/kg), systemic clearance","[5]; rat, IV",7.7 ± 1.0 mL/min/kg
same,"Vss (L/kg), volume of distribution","[5]; rat, IV",4.9 ± 1.9 L/kg
same,volume of distribution,"[5]; rats, […] iv",7.6 L/kg
same,clearance,"[5]; rats, […] iv, Table 22",6 mL/min/kg
same,time on the rotating rod versus vehicle group,[6],no significant difference
same,IC50,LNCaP,28 ± 4 nM
same,IC50,PC-3; [13],21 ± 1 nM
"COc1cc(C(=O)c2csc(-c3ccc(CN)cc3)n2)cc(OC)c1OC.Cl [2r, (2-(4-(Aminomethyl)phenyl)thiazol-4-yl)(3,4,5-trimethoxyphenyl)methanone hydrochloride]",IC50,[7],13 to 80 nM
same,bioavailability,in vivo [8],0.2%
same,solubility in PBS,"[9]; PBS pH 7.4, Figure 18",over 35 µg/mL
same,Resistance factor,"NCI/ADR-RES; NCI/ADR-RES vs OVCAR-8, 5760 min",0.4
same,"CL (mL/min/kg), systemic clearance","[5]; rat, IV",22 ± 13 mL/min/kg
same,"Vss (L/kg), volume of distribution","[5]; rat, IV",0.33 ± 025 L/kg
"COc1cc(C(=O)c2c[nH]c(-c3ccc(Cl)cc3)n2)cc(OC)c1OC [12fa, (2-(4-Chlorophenyl)-1H-imidazol-4-yl)(3,4,5-trimethoxyphenyl)methanone]",IC50,DU 145; read-out: IC50 ± SEM (nM) Du 145,36 ± 0.4 nM
same,AUC,in vivo [8],3630 ng·h/mL
same,Cmax,in vivo [8],1110 ng/mL
same,AUC,in vivo [10],3350 ng·h/mL
same,Cmax,in vivo [10],2590 ng/mL
same,Solubility,[9]; aqueous solubility,12 µg/mL
same,IC50,"OVCAR-8; OVCAR-8 cells, read-out: IC50 ± SEM (nM) OVCAR-8",47 nM
same,IC50,PPC-1,26 ± 0.2 nM
same,IC50,LNCaP,24 ± 1 nM
same,IC50,PC-3; [13],35 ± 1 nM
COc1ccc(S(=O)(=O)Nc2cccnc2Nc2ccc(O)cc2)cc1 [ABT-751],IC50,MDA-MB-435,417 ± 23 nmol/L
same,IC50,"[11]; A375MA2 cells, read-out: IC50 ± SEM (nmol/L) A375MA2",265 ± 36 nmol/L
same,IC50,"[11]; Homo sapiens, HEK293-pcDNA3.1 parental cell line, read-out: IC50 ± SEM (nmol/L) HEK293 - pcDNA3.1",645 ± 153 nmol/L
same,IC50,MDA-MB-435/LCC6MDR1,577 ± 31 nmol/L
same,effect on microtubules,WM-164 melanoma cells,microtubule fragmentation
same,IC50,"WM-164; WM164, read-out: IC50 ± SEM (nM) (n=3), WM-164, Table 14A",661 ± 56 nM
same,IC50,"WM-164; WM164, Table 14B, n=3, read-out: IC50 ± SEM (nmol/L) WM-164",661 ± 56 nM
same,IC50,"OVCAR-8; OVCAR-8, parental cell line, n=3, read-out: IC50 ± SEM (nmol/L) OVCAR-8",785 ± 17 nM
same,IC50,"A375; A-375, Table 14B, n=3, read-out: IC50 ± SEM (nmol/L) A375",685 ± 108 nM
same,IC50,"MRP; MRP1 overexpressed, read-out: IC50 ± SEM (nmol/L) HEK293-MRP1",717 ± 28 nmol/L
same,IC50,"MRP; MRP2 overexpressed, read-out: IC50 ± SEM (nmol/L) HEK293-MRP2",747 ± 7 nmol/L
same,IC50,"NCI/ADR-RES; Homo sapiens, NCI/ADR-RES, MDR1 overexpressed, n=3, read-out: IC50 ± SEM (nmol/L) NCI/ADR-RES",864 ± 42 nmol/L
CC(=O)O[C@@]12CO[C@@H]1C[C@H](O)[C@@]1(C)C(=O)[C@H](O)C3=C(C)[C@@H](OC(=O)[C@H](O)[C@@H](NC(=O)OC(C)(C)C)c4ccccc4)C[C@@](O)([C@@H](OC(=O)c4ccccc4)[C@H]21)C3(C)C [Dooetaxel],TGI (%),PC-3/TxR tumors; end point day 19,56%
same,Tumor size (mm^3) End,PC-3/TxR tumors; end point day 19,999 ± 905 mm^3
same,Tumor size (mm^3) Start,PC-3/TxR tumors; start,170 ± 86 mm^3
COc1cccc2c1C(=O)c1c(O)c3c(c(O)c1C2=O)C[C@@](O)(C(=O)CO)C[C@@H]3O[C@H]1C[C@H](N)[C@H](O)[C@H](C)O1 [Doxorubicin],IC50,T47D,353 nM
same,times more active against endothelial cells than against cancer cells,[12]; Table 24,not specific to endothelial cells
same,"Selectivity ratio*, cancer cells/ HUVEC",[12]; mean IC50 in PC3 and T47D cells over HUVEC,1.4
same,IC50,[12]; read-out: IC50 HUVEC,274 nM
same,permeability of endothelial cell monolayer,HUVEC monolayers,did not induce any change
same,IC50,PC-3; read-out: IC50 PC3,397 nM
CC(C)NCC(O)COc1cccc2ccccc12 (stereo not drawn) [Propranolol],Papp(A→B) in CaCO-2 assay,CaCO-2,Propranolol (19) 10^-6 cm/s
